Measurements: patent US7851474B2, “Dipiperazinyl ketones and related analogues” (Neurogen Corporation, priority 2005, dated 2010)

What follows are molecules tested against T1, chimeric human H3 receptor (Homo sapiens, UniProt Q9Y5N1, E19D) (assay: Chimeric human H3 receptor GTP binding assay (agonist-stimulated GTP-gamma35S binding, Example 7)). Conditions: Table II, "*" in Ki; assay of Example 7; read-out: Ki.
T1 construct: made in house; host or cells: Sf9 insect cells (baculovirus infection); P2 membrane preparation
Assay type: biochemical
How it was run: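 IC50 values come from non-linear regression of dose-response curves of filter-bound GTP-gamma^35S, counted by scintillation. Membranes were from infected Sf9 cells carrying receptor plus G-protein subunits, 35 μg/tube, with 10 μM GDP present.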

T1 sequence (Q9Y5N1 with tags, fused parts or gaps E19D): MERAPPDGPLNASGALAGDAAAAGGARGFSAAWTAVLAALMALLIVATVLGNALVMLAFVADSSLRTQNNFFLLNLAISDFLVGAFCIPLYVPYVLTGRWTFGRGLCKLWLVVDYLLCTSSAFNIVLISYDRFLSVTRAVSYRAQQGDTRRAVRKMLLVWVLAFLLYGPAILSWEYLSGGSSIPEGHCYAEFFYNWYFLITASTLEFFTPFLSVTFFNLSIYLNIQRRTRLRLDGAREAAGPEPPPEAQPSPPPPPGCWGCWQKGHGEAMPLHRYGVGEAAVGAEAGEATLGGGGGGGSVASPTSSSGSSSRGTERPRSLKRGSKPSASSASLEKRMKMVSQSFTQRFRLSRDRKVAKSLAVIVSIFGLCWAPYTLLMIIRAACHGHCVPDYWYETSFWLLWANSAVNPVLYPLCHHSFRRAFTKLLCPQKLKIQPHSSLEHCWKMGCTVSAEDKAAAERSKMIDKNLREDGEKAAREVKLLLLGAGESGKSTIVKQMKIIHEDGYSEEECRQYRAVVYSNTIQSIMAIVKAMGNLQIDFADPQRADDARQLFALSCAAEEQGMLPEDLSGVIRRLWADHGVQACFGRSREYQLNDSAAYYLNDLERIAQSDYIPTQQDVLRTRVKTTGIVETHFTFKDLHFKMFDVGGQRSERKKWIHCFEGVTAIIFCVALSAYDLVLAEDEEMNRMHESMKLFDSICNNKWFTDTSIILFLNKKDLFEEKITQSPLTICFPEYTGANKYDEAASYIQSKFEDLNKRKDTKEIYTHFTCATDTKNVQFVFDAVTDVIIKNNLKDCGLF

Question: Which Ki does the source give for `Cc1nc(-c2ccc(N3CCN(CC(=O)N4CCN(C5CCC5)CC4)CC3)cc2)no1` [Compound 595, 1-cyclobutyl-4-({4-[4-(5-methyl-1,2,4-oxadiazol-3-yl)phenyl]piperazin-1-yl}acetyl)piperazine] here?
Answer: < 1 µM

Question: With `CCS(=O)(=O)c1ccc(N2CCN(CC(=O)N3CCN(C4CCC4)CC3)CC2)cc1` [Compound 597, 1-cyclobutyl-4-({4-[4-(ethylsulfonyl)phenyl]piperazin-1-yl}acetyl)piperazine] as the molecule, how does the Ki read?
Answer: < 1 µM

Question: With `CS(=O)(=O)c1ccc(N2CCN(CC(=O)N3CCN(C4CCC4)CC3)CC2)cc1` [Compound 599, 1-cyclobutyl-4-({4-[4-(methylsulfonyl)phenyl]piperazin-1-yl}acetyl)piperazine] as the molecule, how does the Ki read?
Answer: < 1 µM

Question: With `O=C(CN1CCN(c2ccc(C(=O)N3CCCCC3)cc2)CC1)N1CCN(C2CCC2)CC1` [Compound 601, 1-cyclobutyl-4-({40[4-(piperidin-1-ylcarbonyl)phenyl]piperazin-1-yl}acetyl)piperazine] as the molecule, how does the Ki read?
Answer: < 1 µM

Question: How did the Ki turn out when `CCCS(=O)(=O)c1ccc(N2CCN(CC(=O)N3CCN(C4CCC4)CC3)CC2)cc1` [Compound 602, 1-cyclobutyl-4-({4-[4-(propylsulfonyl)phenyl]piperazin-1-yl}acetyl)piperazine] was run?
Answer: < 1 µM

Question: `O=C(CN1CCN(c2ccc(C(=O)N3CCCC3)cc2)CC1)N1CCN(C2CCC2)CC1` [Compound 603, 1-cyclobutyl-4-({4-[4-(pyrrolidin-1-ylcarbonyl)phenyl]piperazin-1-yl}acetyl)piperazine] was tested. Which Ki did it give?
Answer: < 1 µM

Question: For `O=C(CN1CCN(c2ccc(-c3ccc(OC(F)(F)F)cc3)cc2)CC1)N1CCN(C2CCC2)CC1` [Compound 604, 1-cyclobutyl-4-({4-[4′-(trifluoromethoxy)biphenyl-4-yl]piperazin-1-yl}acetyl)piperazine], which Ki is on record?
Answer: < 1 µM

Question: How did the Ki turn out when `O=C(CN1CCN(c2ccc(-c3ccc(C(F)(F)F)cc3)cc2)CC1)N1CCN(C2CCC2)CC1` [Compound 606, 1-cyclobutyl-4-({4-[4′-(trifluoromethyl)biphenyl-4-yl]piperazin-1-yl}acetyl)piperazine] was run?
Answer: < 1 µM

Question: Which Ki does the source give for `O=C(CN1CCN(c2ccc(F)c(C(F)(F)F)c2)CC1)N1CCN(C2CCC2)CC1` [Compound 607, 1-cyclobutyl-4-({4-[4-fluoro-3-(trifluoromethyl)phenyl]piperazin-1-yl}acetyl)piperazine] here?
Answer: < 1 µM

Question: How did the Ki turn out when `O=C(CN1CCN(c2ccc(C(=O)N3CC=CCC3)cn2)CC1)N1CCN(C2CCC2)CC1` [Compound 609, 1-cyclobutyl-4-({4-[5-(3,6-dihydropyridin-1(2H)-ylcarbonyl)pyridin-2-yl]piperazin-1-yl}acetyl)piperazine] was run?
Answer: < 1 µM

Question: Which Ki does the source give for `O=C(CN1CCN(c2ccc(C(=O)N3CCCCC3)cn2)CC1)N1CCN(C2CCC2)CC1` [Compound 610, 1-cyclobutyl-4-({4-[5-(piperidin-1-ylcarbonyl)pyridin-1-yl]piperazin-1-yl}acetyl)piperazine] here?
Answer: < 1 µM

Question: How did the Ki turn out when `O=C(CN1CCN(c2ccc(C(=O)N3CCCC3)cn2)CC1)N1CCN(C2CCC2)CC1` [Compound 611, 1-cyclobutyl-4-({4-[5-(pyrrolidin-1-ylcarbonyl)pyridin-2-yl]piperazin-1-yl}acetyl)piperazine] was run?
Answer: < 1 µM

Question: For `CCC1CCCCN1C(=O)c1cccc(N2CCN(CC(=O)N3CCN(C4CCC4)CC3)CC2)c1` (stereo not shown) [Compound 638, 1-cyclobutyl-4-[(4-{3-[(2-ethylpiperidin-1-yl)carbonyl]phenyl}piperazin-1-yl)acetyl]piperazine], which Ki is on record?
Answer: < 1 µM

Question: How did the Ki turn out when `CC1CCCCN1C(=O)c1cccc(N2CCN(CC(=O)N3CCN(C4CCC4)CC3)CC2)c1` (stereo not shown) [Compound 639, 1-cyclobutyl-4-[(4-{3-[(2-methylpiperidin-1-yl)carbonyl]phenyl}piperazin-1-yl)acetyl]piperazine] was run?
Answer: < 1 µM

Question: For `CC1CCCN1C(=O)c1cccc(N2CCN(CC(=O)N3CCN(C4CCC4)CC3)CC2)c1` (stereo not shown) [Compound 640, 1-cyclobutyl-4-[(4-{3-[(2-methylpyrrolidin-1-yl)carbonyl]phenyl}piperazin-1-yl)acetyl]piperazine], which Ki is on record?
Answer: < 1 µM

Question: How did the Ki turn out when `CC1CC(C)CN(C(=O)c2cccc(N3CCN(CC(=O)N4CCN(C5CCC5)CC4)CC3)c2)C1` (stereo not shown) [Compound 641, 1-cyclobutyl-4-[(4-{3-[(3,5-dimethylpiperidin-1-yl)carbonyl]phenyl}piperazin-1-yl)acetyl]piperzaine] was run?
Answer: < 1 µM

Question: `CC1CCN(C(=O)c2cccc(N3CCN(CC(=O)N4CCN(C5CCC5)CC4)CC3)c2)CC1` [Compound 642, 1-cyclobutyl-4-[(4-{3-[(4-methylpiperidin-1-yl)carbonyl]phenyl}piperazin-1-yl)acetyl]piperazine] was tested. Which Ki did it give?
Answer: < 1 µM

Question: For `CCC1CCCCN1C(=O)c1ccc(N2CCN(CC(=O)N3CCN(C4CCC4)CC3)CC2)cc1` (stereo not shown) [Compound 643, 1-cyclobutyl-4-[(4-{4-[(2-ethylpiperidin-1-yl)carbonyl]phenyl}piperazin-1-yl)acetyl]piperazine], which Ki is on record?
Answer: < 1 µM

Question: `CC1CCCCN1C(=O)c1ccc(N2CCN(CC(=O)N3CCN(C4CCC4)CC3)CC2)cc1` (stereo not shown) [Compound 644, 1-cyclobutyl-4-[(4-{4-[(2-methylpiperidin-1-yl)carbonyl]phenyl}piperazin-1-yl)acetyl]piperazine] was tested. Which Ki did it give?
Answer: < 1 µM

Question: Which Ki does the source give for `CC1CCCN1C(=O)c1ccc(N2CCN(CC(=O)N3CCN(C4CCC4)CC3)CC2)cc1` (stereo not shown) [Compound 645, 1-cyclobutyl-4-[(4-{4-[(2-methylpyrrolidin-1-yl)carbonyl]phenyl}piperazin-1-yl)acetyl]piperazine] here?
Answer: < 1 µM

Question: Which Ki does the source give for `CC1CC(C)CN(C(=O)c2ccc(N3CCN(CC(=O)N4CCN(C5CCC5)CC4)CC3)cc2)C1` (stereo not shown) [Compound 646, 1-cyclobutyl-4-[(4-{4-[(3,5-dimethylpiperidin-1-yl)carbonyl]phenyl}piperazin-1-yl)acetyl]piperazine] here?
Answer: < 1 µM

Question: `O=C(CN1CCN(c2ccc(C(=O)N3CCC(F)(F)CC3)cc2)CC1)N1CCN(C2CCC2)CC1` [Compound 647, 1-cyclobutyl-4-[(4-{4-[(4,4-difluoropiperidin-1-yl)carbonyl]phenyl}piperazin-1-yl)acetyl]piperazine] was tested. Which Ki did it give?
Answer: < 1 µM

Question: Which Ki does the source give for `O=C(CN1CCN(c2ccc(C(=O)N3CCC(F)CC3)cc2)CC1)N1CCN(C2CCC2)CC1` [Compound 648, 1-cyclobutyl-4-[(4-{4-[(4-fluoropiperidin-1-yl)carbonyl]phenyl}piperazin-1-yl)acetyl]piperazine] here?
Answer: < 1 µM

Question: `CC1CCN(C(=O)c2ccc(N3CCN(CC(=O)N4CCN(C5CCC5)CC4)CC3)cc2)CC1` [Compound 649, 1-cyclobutyl-4-[(4-{4-[(4-methylpiperidin-1-yl)carbonyl]phenyl}piperazin-1-yl)acetyl]piperazine] was tested. Which Ki did it give?
Answer: < 1 µM

Question: For `CCC1CCCCN1C(=O)c1ccc(N2CCN(CC(=O)N3CCN(C4CCC4)CC3)CC2)nc1` (stereo not shown) [Compound 650, 1-cyclobutyl-4-[(4-{5-[(2-ethylpiperidin-1-yl)carbonyl]pyridin-2-yl}piperazin-1-yl)acetyl]piperazine], which Ki is on record?
Answer: < 1 µM

Question: How did the Ki turn out when `CC1CCCCN1C(=O)c1ccc(N2CCN(CC(=O)N3CCN(C4CCC4)CC3)CC2)nc1` (stereo not shown) [Compound 651, 1-cyclobutyl-4-[(4-{5-[(2-methylpiperidin-1-yl)carbonyl]pyridin-2-yl}piperazin-1-yl)acetyl]piperazine] was run?
Answer: < 1 µM

Question: How did the Ki turn out when `CC1CCCN1C(=O)c1ccc(N2CCN(CC(=O)N3CCN(C4CCC4)CC3)CC2)nc1` (stereo not shown) [Compound 652, 1-cyclobutyl-4-[(4-{5-[(2-methylpyrrolidin-1-yl)carbonyl]pyridin-1-yl}piperazin-1-yl)acetyl]piperazine] was run?
Answer: < 1 µM

Question: `CC1CC(C)CN(C(=O)c2ccc(N3CCN(CC(=O)N4CCN(C5CCC5)CC4)CC3)nc2)C1` (stereo not shown) [Compound 653, 1-cyclobutyl-4-[(4-{5-[(3,5-dimethylpiperidin-1-yl)carbonyl]pyridin-2-yl}piperazin-1-yl)acetyl]piperazine] was tested. Which Ki did it give?
Answer: < 1 µM

Question: Which Ki does the source give for `O=C(CN1CCC(F)(c2ccccc2)CC1)N1CCN(C2CCC2)CC1` [Compound 654, 1-cyclobutyl-4-[(4-fluoro-4-phenylpiperidin-1-yl)acetyl]piperazine] here?
Answer: < 1 µM

Question: `O=C(CN1CC=C(c2ccccc2)CC1)N1CCN(C2CCC2)CC1` [Compound 656, 1-cyclobutyl-4-[(4-phenyl-3,6-dihydropyridin-1(2H)-yl)acetyl]piperazine] was tested. Which Ki did it give?
Answer: < 1 µM

Question: Which Ki does the source give for `O=C(CN1CCN(c2ccccc2)CC1)N1CCN(C2CCC2)CC1` [Compound 657, 1-cyclobutyl-4-[(4-phenylpiperazin-1-yl)acetyl]piperazine] here?
Answer: < 1 µM

Question: `O=C(CN1CCC(N2CCCC2)CC1)N1CCN(C2CCC2)CC1` [Compound 658, 1-cyclobutyl-4-[(4-pyrrolidin-1-ylpiperidin-1-yl)acetyl]piperazine] was tested. Which Ki did it give?
Answer: < 1 µM

Question: With `O=C(CN1CCN(c2ccc(-c3cccc(Cl)c3Cl)cc2)CC1)N1CCN(C2CCC2)CC1` [Compound 665, 1-cyclobutyl-4-{[4-(2′,3′-dichlorobiphenyl-4-yl)piperazin-1-yl]acetyl}piperazine] as the molecule, how does the Ki read?
Answer: < 1 µM

Question: Which Ki does the source give for `O=C(CN1CCN(c2cccc(Cl)c2Cl)CC1)N1CCN(C2CCC2)CC1` [Compound 666, 1-cyclobutyl-4-{[4-(2,3-dichlorophenyl)piperazin-1-yl]acetyl}piperazine] here?
Answer: < 1 µM

Question: Which Ki does the source give for `O=C(CN1CCN(c2ccc(-c3cccc(F)c3F)cc2)CC1)N1CCN(C2CCC2)CC1` [Compound 667, 1-cyclobutyl-4-{[4-(2′,3′-difluorobiphenyl-4-yl)piperazin-1-yl]acetyl}piperazine] here?
Answer: < 1 µM

Question: How did the Ki turn out when `Cc1cccc(N2CCN(CC(=O)N3CCN(C4CCC4)CC3)CC2)c1C` [Compound 672, 1-cyclobutyl-4-{[4-(2,3-dimethylphenyl)piperazin-1-yl]acetyl}piperazine] was run?
Answer: < 1 µM

Question: For `Cc1cc(C)c(-c2ccc(N3CCN(CC(=O)N4CCN(C5CCC5)CC4)CC3)cc2)c(C)c1` [Compound 673, 1-cyclobutyl-4-{[4-(2′,4′,6′-trimethylbiphenyl-4-yl)piperazin-1-yl]acetyl}piperazine], which Ki is on record?
Answer: < 1 µM
